Among the data in PubChem BioAssay (NCI) are GI50 and TGI values, retold here.

Common to all, as to assay: growth of human tumour cells (NCI), 48 h
Assay [1] concerns MOLT-4 leukemia.
Assay [2] deals with U251 CNS.
For assay [3], the system named is BT-549 breast.
For assay [4], the system named is LOX IMVI melanoma.
Assay [5] has as its system CCRF-CEM leukemia.
In assay [6] the test system is SK-MEL-2 melanoma.
The subject of assay [7] is RPMI-8226 leukemia.
Assay [8] relates to SK-MEL-28 melanoma.
Assay [9] relates to MDA-MB-435.
Assay [10] deals with MCF7 breast.

Several values for one entry are separate records, joined by “and”; a condition that tells them apart may be missing. Equal entries are not always repeated.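 Following 48 hours of exposure in 96-well plates, responses at five concentrations were used to interpolate endpoints linearly. GI50 marks 50% less growth. TGI denotes the concentration required for complete inhibition of growth.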

With `O=C(CCCCC(=O)N/N=C\c1ccccc1O)N/N=C\c1ccccc1O`, the GI50 in [1] is 3.01 µM; in assay [2] it was 3.09 µM; in assay [3], 32 µM; in assay [4], 2.3 µM; in assay [5] it was 1.29 µM; in assay [6] it was 6.66 µM. Moreover, the TGI in [1], in assay [2], in assay [3], in [4], in [5] and in assay [6] was over 100 µM throughout.
For `O=C(CC/C(CC(=O)c1ccc(Br)cc1)=N\O)Nc1ccc(Cl)c(Cl)c1`, the TGI in [1], in [7], in assay [2], in assay [4], in assay [5] and in assay [8] was over 100 µM each time. The molecule further yielded a TGI in assay [6] of over 100 µM.
In the case of `CC(=O)[O-].O=C([CH-]C(=O)c1ccccc1)c1ccccc1.O=C([CH-]C(=O)c1ccccc1)c1ccccc1.[Sm+3]`, the GI50 was 2.41 µM in assay [1]; 5.57 µM in [7]; 5.93 µM in assay [2]; 7.01 µM in [4]; 5.87 µM in [8]; 2.03 µM in [6]. In addition, the TGI in assay [1] was 21.2 µM; in [7], 33.8 µM; in assay [2], 35.3 µM; in [4], 21.7 µM; in assay [8], 37.8 µM; in assay [6], 6.93 µM.
On to `Cn1c(=O)c2/c(n(C)c1=O)=N\C=c1\c(=O)n(C)c(=O)n(C)\c1=N\C=2`, for which the TGI in [1], in assay [2], in [5], in assay [8] and in [6] was over 100 µM each time.
As for `O=C1CSc2cc([N+](=O)[O-])ccc2N1`, the TGI in assay [1], in [2], in [4], in [5], in [8] and in assay [6] was over 100 µM each time.
`Cn1cccc1/C=C/c1cc(Br)c(/C=C/c2cccn2C)cc1Br`: the TGI in assay [1] was 43.2 µM; in assay [7] it was 41.3 µM; in assay [2], 28.6 µM; in [4], 56.4 µM; in assay [5], 62.2 µM; in assay [8], 31.5 µM. Further, the TGI in assay [6] is 37.2 µM.
In the case of `O=C(NC(=O)c1ccccc1[N+](=O)[O-])Nc1ccc(Oc2ncc(Cl)cn2)c(C(F)(F)F)c1`, the TGI in assay [1] was over 69.1 µM; in [7], over 67.9 µM; in assay [9], under 0.0123 µM; in [2], 10.8 µM; in assay [10] it was over 52.2 µM; in [4], 13.8 µM. Moreover, the TGI is over 100 µM in [5] and over 4.64 µM in assay [8].
As for `O=C(CCC(=O)C1CCC/C1=N/O)Nc1ccc(Cl)cc1` (stereo unspecified), the TGI in [1], in [7], in [2], in assay [5], in assay [8] and in assay [6] was over 100 µM throughout.
`Brc1cc2c(cc1Br)CN(c1ccccc1)C2`: the TGI in [1], in assay [7], in assay [2], in assay [4], in [5] and in [8] was over 100 µM throughout. Moreover, the TGI in assay [6] is over 100 µM.
As for `CN(C)C(=O)Oc1c(-c2ccccc2)c(=O)n2c3ccccc3n3c(=O)n(C)c(=O)c1c23`, the TGI in assay [1], in assay [7], in [2], in assay [4], in [8] and in [6] was over 100 µM throughout.
Take `O=C1/C(=C/c2ccc(Br)cc2)CCC/C1=C\c1ccc(Br)cc1`: the TGI was found to be 23.5 µM in [1]; 5.26 µM in [7]; 20.5 µM in assay [2]; 24.4 µM in assay [5]; 14.1 µM in assay [8]; 63 µM in [6].
Regarding `CCCCCCCCCCC(C)CCCCCCC(=O)O` (stereo unspecified), the TGI in [1], in assay [7], in [2], in assay [4], in assay [5] and in [8] was over 100 µM throughout. In addition, in assay [6], the TGI is over 100 µM.
As for `CC(=O)[CH-]C(=O)c1ccccc1.CC(=O)[CH-]C(=O)c1ccccc1.CC[O-].O=C1c2ccccc2C(=O)c2c1ccc(O)c2[O-].[Ti+4]`, the TGI in assay [1] is 61.2 µM; in assay [7], 64.7 µM; in assay [2] it was over 100 µM; in [4], over 100 µM; in [5], 56.6 µM; in [8] it was over 100 µM. Moreover, the TGI in assay [6] is over 100 µM.
On to `O=S1Nc2c(Cl)cc(Cl)c(Cl)c2S1` (stereo unspecified), for which the TGI in assay [1], in assay [7], in assay [2], in assay [4], in [5] and in assay [8] was over 100 µM in each case. The TGI in assay [6] was over 100 µM.
With `CC(=O)[CH-]C(C)=O.CC(=O)[CH-]C(C)=O.CC[O-].CC[O-].[Ti+4]`, the GI50 in assay [1], in [7], in [2], in [4], in assay [5] and in [8] was over 100 µM each time. Moreover, the GI50 in assay [6] is over 100 µM. In addition, the TGI in [1], in assay [7], in [2], in assay [4], in assay [5] and in [8] was over 100 µM each time. Also, in assay [6], the TGI is over 100 µM.
As to `O=C1C(Cl)=C(Nc2cccc(O)c2)C(=O)N1Cc1ccc(Cl)cc1Cl`, the GI50 is 3.22 µM in assay [1]; 1.08 µM in assay [7]; 6.72 µM in [9]; 4.31 µM in assay [2]; 10.9 µM in assay [10]; 4.06 µM in assay [4]. The GI50 in [5] is 2.82 µM; in [8] it was 3.89 µM; in assay [6], 1.25 µM. The TGI came to 19.2 µM in [1]; 14 µM in assay [7]; 19.5 µM in [9]; 15.5 µM in assay [2]; 30.7 µM in [10]; 15.5 µM in assay [4]. In addition, the TGI in assay [5] was found to be 52.7 µM; in assay [8] it was 18.3 µM; in assay [6], 11.1 µM.
As to `Cc1cccc2c(O)cc(=O)oc12`, the TGI in [1], in assay [7], in assay [2], in [4], in assay [5] and in assay [8] was over 100 µM throughout.
Consider `CC(=O)N/C(=C\c1ccc(Cc2nc3c([nH]2)C(=O)c2ccccc2C3=O)cc1)c1nc2c([nH]1)C(=O)c1ccccc1C2=O`, for which the TGI in assay [1], in [7], in assay [2], in assay [4], in assay [5] and in assay [8] was over 100 µM throughout. For the same molecule, the TGI in [6] is over 100 µM.
Regarding `O=NN(CCCl)C(=O)NC1CCC(CC2CCC(NC(=O)N(CCCl)N=O)CC2)CC1` (stereo unspecified), the TGI is 47.8 µM in [1]; over 77.8 µM in [7]; 46.2 µM in assay [2]; 26.4 µM in assay [4]; 50.7 µM in assay [5]; over 100 µM in assay [8]. In addition, in assay [6], the TGI was over 100 µM.
In the case of `CC(C)=CC(=O)Cc1nc2ccc([N+](=O)[O-])cc2[nH]c1=O`, the TGI in [1], in [7], in assay [4], in [8] and in [6] was over 100 µM each time.
Consider `CN(C)CC/C(=N\Nc1ccc(Cl)cc1Cl)c1ccccc1`, for which the TGI was determined as 42 µM in assay [1]; 17.1 µM in [7]; 24.8 µM in assay [2]; 28 µM in assay [4]; 31.2 µM in assay [5]; 28.5 µM in assay [8]. For the same molecule, the TGI in [6] was 28.6 µM.
Turning to `N#CCC(=O)N1CCCCCCC1`, the TGI in [2], in [4], in [5], in [8] and in assay [6] was over 100 µM in each case.
With `Cc1ccc(C(=O)CC2=Nc3nnc(CCCCCCCc4nnc5n4C(=O)C(CC(=O)c4ccc(C)cc4)=N5)n3C2=O)cc1`, the TGI in [1], in assay [7], in assay [2], in assay [4], in assay [5] and in [8] was over 100 µM throughout.
Consider `CCN(CC)c1ccc(/C=C/C=C2\NC(=O)NC2=O)cc1`, for which the GI50 in assay [1] was 6.49 µM; in assay [7] it was 2.68 µM; in assay [2], 3.22 µM; in assay [3], 1.53 µM; in assay [10], 3.77 µM; in assay [4], 7.15 µM. The GI50 in assay [8] is 27.1 µM; in assay [6], 3.5 µM. The TGI in assay [1] is over 100 µM; in assay [7], 32.4 µM; in assay [2], 17.9 µM; in assay [3] it was 40.8 µM; in [10], over 100 µM; in assay [4], over 100 µM. For the same molecule, the TGI is over 100 µM in [8] and 53.6 µM in assay [6].
`CCC[CH2][Sn]1([CH2]CCC)[O]CC(C)[O]1` (stereo unspecified): the GI50 in [1] was 0.56 µM; in assay [7], 0.309 µM; in assay [2] it was 1.39 µM; in assay [4], 1.23 µM; in assay [5], 0.314 µM; in assay [8] it was 2.24 µM. Also, the GI50 in assay [6] is 0.54 µM. Further, the TGI in assay [1] is 3 µM; in assay [7], 2.07 µM; in assay [2], 2.72 µM; in assay [4], 2.66 µM; in assay [5] it was 0.97 µM; in [8] it was 3.96 µM. The molecule also displayed a TGI in assay [6] of 1.83 µM.
Turning to `O=C(/C=C\c1cccc2ccccc12)c1cccc2ccccc12`, the GI50 in assay [1] is 2.49 µM; in assay [7] it was 2.68 µM; in assay [2], 12 µM; in assay [4] it was 4.42 µM; in assay [5], 2.28 µM. The TGI in assay [1] is 8.08 µM and 20.5 µM; in assay [7], over 100 µM; in assay [2], 24.4 µM; in [4] it was 18 µM; in assay [5], 8.97 µM; in [8] it was 20.5 µM. The molecule further had a TGI in [6] of 36.8 µM.
As to `O=[N+]([O-])c1ccc(C=NC23CC4CC(CC(C4)C2)C3)cc1`, the TGI in [1], in assay [7], in assay [2], in assay [4], in assay [5] and in [8] was over 100 µM each time. In assay [6], the TGI was over 100 µM.
As for `CN1C/C(=C\C=C\c2ccccc2)C(=O)/C(=C/C=C/c2ccccc2)C1`, the TGI in assay [1], in assay [7], in [2], in assay [4], in assay [5] and in assay [8] was over 100 µM in each case. Also, the TGI in [6] was over 100 µM.
For `CC1(C)N=C(c2ccccn2)C(c2ccccn2)=NC1(C)C`, the TGI in [1], in [7], in assay [2], in [4], in assay [5] and in [6] was over 100 µM each time.
Regarding `CCN(CC)CCNC(=O)c1cccc2nc3ccccc3nc12`, the TGI was 37.3 µM in assay [1]; over 100 µM in assay [7]; over 79.6 µM in assay [2]; 29.5 µM in assay [4]; 34.3 µM in assay [8]; 28.2 µM in [6].
